ChEMBL document CHEMBL5696443 (Clin Cancer Res, 2016)
The source made the active and inactive calls. The rule behind the calls is not given here.

Legend:
[1] = target: CDK9/cyclin T1 (Homo sapiens) (UniProt O60563+P50750); assay: Inhibition of human CDK9/CyclinT1 at 1 uM using KTFCGTPEYLAPEVRREPRILSEEEQEMFRDFDYIADWC as substrate in presence of [gamma33P]-ATP by HotSpot assay relative to control; assay type: protein-complex assay
[2] = target: Tyrosine-protein kinase Fer (Homo sapiens, UniProt P16591); assay: Inhibition of human FER using poly (Glu, Tyr)4:1 as substrate in presence of [gamma33P]-ATP by HotSpot assay
[3] = target: Receptor tyrosine-protein kinase erbB-4 (Homo sapiens, UniProt Q15303); assay: Inhibition of human ERBB4 using poly (Glu, Tyr)4:1 as substrate in presence of [gamma33P]-ATP by HotSpot assay
[4] = target: Leucine-rich repeat serine/threonine-protein kinase 2 (Homo sapiens, UniProt Q5S007); assay: Inhibition of human LRRK2 using RLGRDKYKTLRQIRQ as substrate in presence of [gamma33P]-ATP by HotSpot assay
[5] = target: Angiopoietin-1 receptor (Homo sapiens, UniProt Q02763); assay: Inhibition of human TEK using poly (Glu, Tyr)4:1 as substrate in presence of [gamma33P]-ATP by HotSpot assay
[6] = target: RAC-beta serine/threonine-protein kinase (Homo sapiens) (UniProt P31751); assay: Inhibition of human AKT2 at 1 uM using KGSGSGRPRTSSFAEG as substrate in presence of [gamma33P]-ATP by HotSpot assay relative to control
[7] = target: Calcium/calmodulin-dependent protein kinase type 1D (Homo sapiens) (UniProt Q8IU85); assay: Inhibition of human CAMK1D at 1 uM using KKALRRQETVDAL as substrate in presence of [gamma33P]-ATP by HotSpot assay relative to control
[8] = target: Cyclin-dependent kinase 4/cyclin D1 (Homo sapiens) (UniProt P11802+P24385); assay: Inhibition of human CDK4/CyclinD1 at 1 uM using RB protein as substrate in presence of [gamma33P]-ATP by HotSpot assay relative to control; assay type: protein-complex assay
[9] = target: CDK6/cyclin D1 (Homo sapiens) (UniProt P24385+Q00534); assay: Inhibition of human CDK6/CyclinD1 at 1 uM using RB protein as substrate in presence of [gamma33P]-ATP by HotSpot assay relative to control; assay type: protein-complex assay
[10] = target: Dual specificity protein kinase CLK3 (Homo sapiens) (UniProt P49761); assay: Inhibition of human CLK3 at 1 uM using MBP as substrate in presence of [gamma33P]-ATP by HotSpot assay relative to control
[11] = target: Death-associated protein kinase 3 (Homo sapiens) (UniProt O43293); assay: Inhibition of human DAPK3 at 1 uM using KKLNRTLSFAEPG as substrate in presence of [gamma33P]-ATP by HotSpot assay relative to control
[12] = target: Serine/threonine-protein kinase DCLK2 (Homo sapiens) (UniProt Q8N568); assay: Inhibition of human DCLK2 at 1 uM using KKLNRTLSFAEPG as substrate in presence of [gamma33P]-ATP by HotSpot assay relative to control
[13] = target: Dual specificity tyrosine-phosphorylation-regulated kinase 1A (Homo sapiens) (UniProt Q13627); assay: Inhibition of human DYRK1A at 1 uM using RRRFRPASPLRGPPK as substrate in presence of [gamma33P]-ATP by HotSpot assay relative to control
[14] = target: Ephrin type-B receptor 3 (Homo sapiens) (UniProt P54753); assay: Inhibition of human EPHB3 at 1 uM using poly (Glu, Tyr)4:1 as substrate in presence of [gamma33P]-ATP by HotSpot assay relative to control
[15] = target: Tyrosine-protein kinase Lyn (Homo sapiens, UniProt P07948); assay: Inhibition of human LYNB at 1 uM using poly (Glu, Tyr)4:1 as substrate in presence of [gamma33P]-ATP by HotSpot assay relative to control
[16] = system: KARPAS-299; assay: Inhibition of ERK phosphorylation in ALK-positive human KARPAS-299 cells at 1 to 1000 nM incubated for 1 hrs by immunoblot analysis; assay type: cell-based; conditions: dose 1-1000 nM
[17] = target: NT-3 growth factor receptor (Homo sapiens) (UniProt Q16288); assay: Inhibition of human NTRK3 at 1 uM using poly (Glu, Tyr)4:1 as substrate in presence of [gamma33P]-ATP by HotSpot assay relative to control
[18] = target: Platelet-derived growth factor receptor beta (Homo sapiens) (UniProt P09619); assay: Inhibition of human PDGFRbeta at 1 uM using poly (Glu, Tyr)4:1 as substrate in presence of [gamma33P]-ATP by HotSpot assay relative to control
[19] = target: Protein kinase C gamma type (Homo sapiens) (UniProt P05129); assay: Inhibition of human PKCG at 1 uM using ERMRPRKRQGSVRRRV as substrate in presence of [gamma33P]-ATP by HotSpot assay relative to control
[20] = target: Serine/threonine-protein kinase PLK3 (Homo sapiens) (UniProt Q9H4B4); assay: Inhibition of human PLK3 at 1 uM using casein as substrate in presence of [gamma33P]-ATP by HotSpot assay relative to control
[21] = target: Serine/threonine-protein kinase TAO2 (Homo sapiens) (UniProt Q9UL54); assay: Inhibition of human TAOK2 at 1 uM using MBP as substrate in presence of [gamma33P]-ATP by HotSpot assay relative to control
[22] = system: KARPAS-299; assay: Antitumor activity against ALK positive human KARPAS-299 cells xenografted in SCID beige mouse assessed as inhibition of tumor growth administered orally once daily for 14 days; assay type: functional, cell-based; conditions: dose 10-50 mg/kg, route po, time 14.0 day
[23] = Average plasma concentration in human at 180 mg administered once a day; assay type: ADME; conditions: in vivo
[24] = Average plasma concentration in CB-17/SCID mouse implanted with mouse BaF3 cells expressing EML4-ALK G1202R mutant at 25 mg/kg, po administered once daily for 7 days by LC-MS/MS analysis; assay type: ADME, organism-based; conditions: in vivo, 168 h, time 7 day
[25] = system: EML4-ALK (Homo sapiens), Q9UM73+Q9HC35 [L1196M]; conditions: BaF3, time 3-5 weeks
[26] = system: EML4-ALK (Homo sapiens), Q9UM73+Q9HC35 [L1196M]; conditions: BaF3, dose 200.0 nmol/L, time 3-5 weeks
[27] = system: EML4-ALK (Homo sapiens), Q9UM73+Q9HC35 [S1206A]; conditions: BaF3, dose 200.0 nmol/L, time 3-5 weeks
[28] = system: EML4-ALK (Homo sapiens), Q9UM73+Q9HC35 [E1210K]; conditions: BaF3, dose 500.0 nmol/L, time 3-5 weeks
[29] = system: EML4-ALK (Homo sapiens), Q9UM73+Q9HC35 [S1206F]; conditions: BaF3, dose 500.0 nmol/L, time 3-5 weeks

Q: What does the source list for COc1cc(N2CCC(N3CCN(C)CC3)CC2)ccc1Nc1ncc(Cl)c(Nc2ccccc2P(C)(C)=O)n1 [BRIGATINIB]?
A: inhibition [1]: < 90%; IC50 [2]: 1.3 nM; IC50 [3]: 27 nM; IC50 [4]: 51 nM; IC50 [5]: > 1000 nM; inhibition [6]: < 90%; inhibition [7]: < 90%; inhibition [8]: < 90%; inhibition [9]: < 90%; inhibition [10]: < 90%; inhibition [11]: < 90%; inhibition [12]: < 90%; inhibition [13]: < 90%; inhibition [14]: < 90%; inhibition [15]: < 90%; inhibition [16]: Active; inhibition [17]: < 90%; inhibition [18]: < 90%; inhibition [19]: < 90%; inhibition [20]: < 90%; inhibition [21]: < 90%; Activity [22]: Dose-Dependent Effect; Cave [23]: 1447 nM; Cave [24]: 2546 nM; IC90 [25]: 118 nM; inhibition [26]: inactive; inhibition [27]: inactive; inhibition [28]: Active; inhibition [29]: Active
